Patent publication US20260125375A1 (Pfizer Inc., priority 2022, published 2026)
Read-outs that look alike come from different tables or passages of the source.

What was measured:
C-CBL = molecular target: T1, C-CBL (Homo sapiens, UniProt P22681); experiment: Jurkat HiBit-IL2 assay (CBL-B KO), reporter cell line expressing C-CBL only; format: cell-based; details: geometric mean, read-out: CBL-B KO EC50 (nM) GMean
T1 construct: endogenous in cells; host or cells: Jurkat HiBit-IL2 reporter cells, CBL-B knocked out by CRISPR
Text: (§1) Jurkat HiBit-IL2 Assay (WT, c-CBL KO, CBL-B KO)
(§2) The purpose of the Jurkat HiBit-IL2 assay is to evaluate the effect of the inhibition of CBL-B and/or C-CBL on TCR/CD28 stimulated interleukin-2 (IL-2) secretion.
(§3) The expression of IL-2 can then be accurately measured by HiBit luciferase assay. Further, C-CBL or CBL-B was knocked out by CRISPR respectively in this Jurkat HiBit-IL2 reporter cell line to create reporter cell line expressing CBL-B only (c-CBL knockout (KO)) or C-CBL only (CBL-B KO).
(§4) All three reporter cell lines were maintained in RPMI-1640 media with GlutaMax, 10% fetal bovine serum, 100 units/ml of penicillin, and 100 μg/ml of streptomycin at 37° C., 5% CO2, at a cell density 1×10e5-2×10e6 viable cells/ml. Serial diluted compounds in DMSO (40 nl/well, final 0.1% DMSO in assay cell culture) were plated into 384-well white-wall clear-bottom cell culture plates. Reporter cells were pelleted and resuspended in fresh cell culture medium to 0.66×10e6 cells/ml and added to the assay plate at 30 μl/well (20,000 cells/well). The cells were incubated with compounds for 1 hour at 37° C., 5% CO2. 10 μl/well of anti-CD3 antibody (OKT3) and anti-CD28 antibody (CD28.2) prediluted in fresh cell culture medium at 4× final concentration (anti-CD3 mAb: 4 μg/ml; anti-CD28 mAb: 8 μg/ml) was added into the cells (final concentration of anti-CD3 mAb: 1 μg/ml; anti-CD28 mAb: 2 μg/ml). The cells were cultured for another 4 hours at 37° C., 5% CO2. The Nano-Glo HiBiT Lytic Reagent was prepared following the manufacturer's protocol. 20 ul/well of the Nano-Glo HiBiT Lytic Reagent was added into the reporter cell culture assay plate and incubated at room temperature (20-25° C.) for 15 minutes. The plates were read on a Perkin-Elmer EnVision plate reader with 0.1 second integration time. Data were normalized to “Fold of Effect” with the anti-CD3 and anti-CD28 antibodies only samples as the baseline activation level and EC50 was calculated. The EC50 (nM) values reported are the geometric means (GMean) of the number of tests conducted.

CBL-B = molecular target: T2, CBL-B (Homo sapiens, UniProt Q13191); experiment: Jurkat HiBit-IL2 assay (c-CBL KO), reporter cell line expressing CBL-B only; format: cell-based; details: geometric mean, read-out: C-CBL KO EC50 (nM) GMean
T2 construct: endogenous in cells; host or cells: Jurkat HiBit-IL2 reporter cells, C-CBL knocked out by CRISPR
Text: as §1, §2, §3, §4

CBL-B (residues 36-427) = molecular target: T3, CBL-B (residues 36-427) (Homo sapiens, UniProt Q13191); experiment: Ligand Displacement Assay (LDA), HTRF competitive binding against BODIPY-labeled fluorescent tracer, CBL-B; details: geometric mean of the number of tests, read-out: CBL-B Ki (nM) GMean
T3 construct: Purified CBL-B (residues 36-427) and C-CBL (residues 46-435) proteins from baculovirus-infected insect cells; made in house; host or cells: baculovirus-infected insect cells
Summary of the method: (§5)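 First, the insect-cell-expressed protein is biotinylated at its amino-terminal AviTag with BirA and coupled to SA-Tb. Next, the tracer KD is determined for each protein. Finally, compounds are titrated three-fold in duplicate […], at 2% DMSO, and Ki is reported as a geometric mean.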

C-CBL (residues 46-435) = molecular target: T4, C-CBL (residues 46-435) (Homo sapiens, UniProt P22681); experiment: Ligand Displacement Assay (LDA), HTRF competitive binding against BODIPY-labeled fluorescent tracer, C-CBL; details: geometric mean of the number of tests, read-out: C-CBL Ki (nM) GMean
T4 construct: Purified CBL-B (residues 36-427) and C-CBL (residues 46-435) proteins from baculovirus-infected insect cells; made in house; host or cells: baculovirus-infected insect cells
T4 sequence (P22681 46-435): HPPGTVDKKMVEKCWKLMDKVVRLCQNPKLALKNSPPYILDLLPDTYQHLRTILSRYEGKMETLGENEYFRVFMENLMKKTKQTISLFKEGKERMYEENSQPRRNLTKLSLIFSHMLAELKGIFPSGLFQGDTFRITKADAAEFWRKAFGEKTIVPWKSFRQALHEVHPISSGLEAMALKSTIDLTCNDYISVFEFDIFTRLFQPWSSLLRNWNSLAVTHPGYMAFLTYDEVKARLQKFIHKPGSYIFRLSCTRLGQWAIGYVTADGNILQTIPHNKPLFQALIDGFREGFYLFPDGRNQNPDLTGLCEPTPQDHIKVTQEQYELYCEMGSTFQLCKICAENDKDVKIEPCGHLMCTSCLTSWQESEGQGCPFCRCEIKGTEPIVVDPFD
Summary of the method: as §5

[1] = CBL-B KO (C-CBL only), anti-CD3/anti-CD28 stimulation 4 hours, Table 16a
[2] = CBL-B KO (expressing C-CBL only), Table 16b (further repetition)
[3] = C-CBL KO (expressing CBL-B only), Table 16b (further repetition)
[4] = c-CBL KO (CBL-B only), anti-CD3/anti-CD28 stimulation 4 hours, Table 16a

| Structure (SMILES) | EC50 (C-CBL; [1]) [nM] | EC50 (C-CBL; [2]) [nM] | EC50 (CBL-B; [3]) [nM] | EC50 (CBL-B; [4]) [nM] | Ki (CBL-B (residues 36-427)) [nM] | Ki (C-CBL (residues 46-435)) [nM] |
| --- | --- | --- | --- | --- | --- | --- |
| CC(N[C@H](C)[C@H](C)O)c1nc(C(F)(F)F)cc2c(-c3cccc([C@H](c4nncn4C)C4CCC4)c3)n[nH]c12 (single isomer, unassigned) [Example C48] | 493 | 466 | 67 | 20 | 2.5 | 33 |
| CC(NC(=O)[C@H](C)O)c1nc(C(F)(F)F)cc2c(-c3cccc([C@H](c4nncn4C)C4CCC4)c3)n[nH]c12 (single isomer, unassigned) [Example I4] | 852 | 491 | 108 | 48 | 3.4 | 24.3 |
| C[C@@H](N[C@@H]1CC[C@H](O)C1)c1nc(C(F)(F)F)cc2c(-c3cccc([C@H](c4nncn4C)C4CCC4)c3)n[nH]c12 [Example C118, (1S,3R)-3-({(1R)-1-[3-{3-[(R)-cyclobutyl(4-methyl-4H-1,2,4-triazol-3-yl)methyl]phenyl}-5-(trifluoromethyl)-1H-pyrazolo[3,4-c]pyridin-7-yl]ethyl}amino)cyclopentanol] | – | 338 | 46 | – | 2.1 | 25.5 |
| C[C@H](N[C@@H](C)CO)c1nc(C(F)(F)F)cc2c(-c3cccc([C@H](c4nncn4C)C4CCC4)c3)n[nH]c12 (single isomer, unassigned) [Example D27] | 194 | 209 | 24 | 11 | 1 | 9.1 |
| CC(NC1CCC1)c1nc(C2CC2)cc2c(-c3cccc(C4(Cc5nncn5C)COC4)c3)n[nH]c12 (single isomer, unassigned) [Example H3, N-{(1ξ)-1-[5-cyclopropyl-3-(3-{3-[(4-methyl-4H-1,2,4-triazol-3-yl)methyl]oxetan-3-yl}phenyl)-1H-pyrazolo[3,4-c]pyridin-7-yl]ethyl}cyclobutanamine] | 392 | 415 | 231 | 49 | 8.1 | 28.8 |
| C[C@H](NC1(CO)CCC1)c1nc(C(F)(F)F)cc2c(-c3cccc([C@H](c4nncn4C)C4CCC4)c3)n[nH]c12 (single isomer, unassigned) [Example D72] | – | 563 | 103 | – | 8.7 | 116 |
| CC(NC1CCC1)c1nc(C2CC2)cc2c(-c3cccc(C4(Cc5nncn5C)COC4)c3)n[nH]c12 (single isomer, unassigned) [Example H4, N-{(1ξ)-1-[5-cyclopropyl-3-(3-{3-[(4-methyl-4H-1,2,4-triazol-3-yl)methyl]oxetan-3-yl}phenyl)-1H-pyrazolo[3,4-c]pyridin-7-yl]ethyl}cyclobutanamine] | 43 | 28 | 11 | 5 | 1 | 4.5 |
| CC(N[C@H]1CCC[C@@H]1O)c1nc(C(F)(F)F)cc2c(-c3cccc([C@H](c4nncn4C)C4CCCCC4)c3)n[nH]c12 (single isomer, unassigned) [Example C101] | – | 909 | 58 | – | 2.5 | 21 |
| C[C@H](O)CN[C@H](C)c1nc(C(F)(F)F)cc2c(-c3cccc([C@H](c4nncn4C)C4CCC4)c3)n[nH]c12 (single isomer, unassigned) [Example D18] | 96 | 137 | 22 | 10 | 1 | 9 |
| CC[C@H](c1cccc(-c2n[nH]c3c([C@H](C)NC[C@H](C)O)nc(C(F)(F)F)cc23)c1)c1nncn1C (single isomer, unassigned) [Example D76] | – | 39 | 20 | – | 0.7 | 2.9 |
